Data as given in US20190091339A1, “ABIRATERONE-CYCLIC OLIGOMER PHARMACEUTICAL FORMULATIONS AND METHODS OF FORMATION AND ADMINISTRATION THEREOF” (DISPERSOL TECHNOLOGIES, LLC, priority 2017, published 2019).
Several values for one entry are separate records, joined by “and”; a condition that tells them apart may be missing. Equal entries are not always repeated.

How the values were obtained:
[1] = system: 22RV1 human prostate tumor xenograft; experiment: Anti-tumor study in 22RV1 xenograft mice; type: in vivo, CB.17 SCID mice; conditions: for Tumor Volume Day 26, individual mice: QD to End, Oral Gavage; for % T/C (mean tumor volume) / % T/C (median tumor volume) / Mean Tumor Volume / Median Tumor Volume: Day 26
Protocol: The objective of the xenograft mice study was to determine the anti-tumor activity of a composition made per Example 2.4 as a single agent versus abiraterone acetate in the 22RV1 human prostate tumor xenograft model. The study was conducted in CB.17 SCID mice injected with 22RV1 cells (5×10^6 cells/mouse) in the subcutaneous right flank. Tumors were grown to a mean tumor size between 100 and 150 mm^3 prior to study enrollment. The mice were dosed with the test article and reference once-daily by oral gavage per Table 12. Tumor volume was measured throughout the study. The study was terminated on day 26 when mean tumor volume of two experimental groups reached ≥1500 mm^3.

[2] = system: prostate specific antigen (PSA); conditions: 1,000 mg abiraterone acetate daily, well controlled trials; cited from earlier work
[3] = Abiraterone Acetate 22.4 mg/kg QD PO
[4] = Abiraterone Acetate 100 mg/kg QD PO

Structure (SMILES): CC(=O)O[C@H]1CC[C@@]2(C)C(=CC[C@@H]3[C@@H]2CC[C@]2(C)C(c4cccnc4)=CC[C@@H]32)C1 [Abiraterone Acetate, (3β)-17(3-pyridinyl)androsta-5,16-dien-3-ol acetate]
- Tumor Volume Day 26, individual mice ([1]; Abiraterone Acetate Dose #1, 22.4 mg/kg): 1,062 mm^3 and 1,389 mm^3 and 808 mm^3 and 1,555 mm^3 and 2,107 mm^3 and 726 mm^3 and 1,606 mm^3 and 1,119 mm^3 and 1,127 mm^3 and 1,143 mm^3
- Tumor Volume Day 26, individual mice ([1]; Abiraterone Acetate Dose #2, 100 mg/kg): 1,609 mm^3 and 1,639 mm^3 and 1,084 mm^3 and 1,490 mm^3 and 1,429 mm^3 and 1,453 mm^3 and 1,152 mm^3 and 1,568 mm^3 and 1,287 mm^3 and 2,787 mm^3
- % T/C (mean tumor volume) [1, 3]: 84.1%
- % T/C (median tumor volume) [1, 3]: 72.8%
- Mean Tumor Volume [1, 3]: 1264.2 mm^3
- Median Tumor Volume [1, 3]: 1135.0 mm^3
- % T/C (mean tumor volume) [1, 4]: 103.1%
- % T/C (median tumor volume) [1, 4]: 94.4%
- Mean Tumor Volume [1, 4]: 1549.4 mm^3
- Median Tumor Volume [1, 4]: 1471.5 mm^3
- tumor growth relative to vehicle control ([1]; once-daily oral gavage, low and high doses, 22RV1 xenograft mice): did not result in statistically different tumor growth
- treated patients achieving target PSA reductions [2]: up to 60%
